Where two headings read alike, the source gives them in different places. Marks after values point to notes of the source that are not given here. Numbered stars: 1 amine (or outer) side, 2 acyl side, 3 side chain; on linkers, the order of the positions; unused ones are H or OH. Square brackets hold non-standard residues; d marks the D form. Ends that are not written are not given here. Peptide text beside a SMILES is read from it. * marks the point of attachment. 5FAM = O=C1OC2(c3ccc(O)cc3Oc3cc(O)ccc32)c2ccc(C(=O)*)cc21; NHCH2C6H4(4-CH2CONH2) = NC(=O)Cc1ccc(CN*)cc1; X1 = O=C(Cc1ccc(CN[*:1])cc1)[*:2]
Experiments:
K-Ras = target: T1, K-Ras (Homo sapiens, UniProt P01116, G12V); experiment: MST binding affinity of resynthesized NNP hits to K-Ras
T1 construct: purchased Cytoskeleton Inc. CS-RS04
Method in brief: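 K-Ras G12V was GTP-loaded (EDTA exchange, 750 μM GTP, 2 h at 30° C, then MgCl2) and labeled with maleimide-647 dye. MST was run at room temperature in 20 mM HEPES pH 7.4, 150 mM NaCl, 10 mM MgCl2, 0.05% Tween-20, 1 mM DTT. Incubations lasted 15, 30 and 45 min; triplicate data fitted for affinity.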

[1] = target: T2, K-Ras-CF555 versus Raf-AF647 (Homo sapiens, UniProt P01116, G12V); experiment: On-bead FAST/ADM competition screen, MFI of target and counter target; assay type: binding; conditions: hit bead in primary competition screen
T2 construct: purchased Cytoskeleton Inc. (K-Ras); Jena Bioscience (Raf-RBD) CS-RS04; PR-305

K-Ras-Raf interaction = target: T3, K-Ras-Raf interaction (Homo sapiens, UniProt P01116, G12V); experiment: K-Ras/Raf inhibition assay (MST competition binding); conditions: NNP at 1 μM pre-incubated with K-Ras 15 minutes at room temperature, then Raf titration
T3 construct: purchased Cytoskeleton Inc. (K-Ras); Jena Bioscience (Raf-RBD) CS-RS04; PR-305
Method: This was tested on an MST competition binding assay (see FIG. 11A).
Loading was performed according to the following protocol: The 200 μM stock solution of the target protein was diluted to 10 μM in 20 mM HEPES pH 8.0, 150 mM NaCl, 10 mM MgCl2, 1 mM TCEP, 0.05% Tween-20 (total volume 110 μL). 10 μL were set aside for later labeling quality control. EDTA pH 8.0 (stock concentration 10 mM) was added to the protein solution to a final concentration of 80 μM. GTP (stock concentration 50 mM) was added to the protein solution to a final concentration of 750 μM. The solution was incubated at 30° C. for 2 hours (PCR tube) and then placed on ice for 2 minutes. MgCl2 was added to the protein solution to a final concentration of 100 mM. The resulting protein solution was buffer exchanged into the buffer required in the labeling kit for labeling. […] All the other target molecules (TNFα, IL-6, IL-6R and ASGPR) were used as received without any additional treatment.
Loading of K-Ras with the GTP was performed according to the protocol detailed above (Activation of K-Ras by GTP loading). After the GTP loading the resulting protein solution was buffer exchanged into 100 mM HEPES pH 6.5, 5 mM MgCl2, 50 mM NaCl, 1 mM TCEP.

biotinylated GST = experiment: Interference check with biotinylated GST and detection mix
Description: Table 20 below provides an interference check on the synthetic compounds using biotinylated GST, which was used with the detection mix to check for compound effect on fluorescence.

cRaf/K-Ras (G12V) PPI = target: T4, cRaf/K-Ras (G12V) PPI (Homo sapiens, UniProt P01116, G12V); experiment: K-Ras-cRaf HTRF-based PPI profiling; assay type: biochemical; conditions: for HillSlope: curve fit of % binding, K-Ras G12V 30 nM, GST-cRaf 10 nM; for blank corrected HTRF: raw data, compounds without fluorescein;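 for blank corrected HTRF: background is the signal of wells with all components except cRaf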
T4 construct: b-Kras G12V (GppNHp) (aa 2-169); biotin (b-
Method in brief: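 K-Ras(G12V) pre-incubated 30 min at room temperature with compound in 20 mM HEPES pH 7.4, 150 mM NaCl, 5 mM MgCl2, 1 mM DTT, 0.005% NP40, 1% DMSO, then cRaf added. HTRF read via anti-GST-Tb cryptate/streptavidin-XL665. % binding is relative to DMSO controls; curves fitted only if activity at top concentration fell below 65%.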

[2] = assay type: in vitro ADME; conditions: 17 h
Method: For human plasma stability, lyophilized human plasma was reconstituted in sterile water for injection, aliquoted into 200 uL aliquots and stored frozen at −80 degrees C. prior to the stability studies. For the stability studies three aliquots per NNP were thawed at room temperature. An additional set of three aliquots for a positive control peptide (Angiotensin I) were also thawed. The incubations for the plasma stability were initiated by mixing 2 uL of a 2 mM stock solution of NNP IL6R-87-8 or positive control in DMSO with the 200 uL thawed plasma aliquot. After briefly vortex-mixing, 50 uL zero-time-point samples were removed, mixed with 50 uL of water and 400 uL of acetonitrile and frozen on dry ice until all time point samples had been collected. The samples were incubated at 37 degrees C. with samples removed and water/acetonitrile added at 1 hour, 3 hours, and 17 hours. Proteins were precipitated by centrifuging the samples at 17,000 G, 4 degrees C. for 1 hour. The supernatants were removed and concentrated in a centrifugal vacuum concentrator (GeneVac Genie II) at 45 degrees C. until the volume had been reduced to around 60 uL. […]

[3] = read-out: KD of K-Ras hits by MST
[4] = K-Ras, compound with fluorescein on N-term, read-out: KD[nM] in MST (with fluorescein on N-term)
[5] = read-out: KD (nM) [95% conf. int], MST, NNP1 library hit, target K-Ras, one-site binding model

| Compound | Kd (K-Ras; [3]) [nM] | Inhibition of K-Ras-Raf PPI (K-Ras-Raf interaction) | Kd (K-Ras; [4]) [nM] | Kd (K-Ras; [5]) [nM] | % signal compared to DMSO (biotinylated GST; assay conc. 0.000508053 μM) [%] | % signal compared to DMSO (biotinylated GST; assay conc. 0.001524158 μM) [%] | % signal compared to DMSO (biotinylated GST; assay conc. 0.004572474 μM) [%] | % signal compared to DMSO (biotinylated GST; assay conc. 0.013717421 μM) [%] | % signal compared to DMSO (biotinylated GST; assay conc. 0.041152263 μM) [%] | % signal compared to DMSO (biotinylated GST; assay conc. 0.12345679 μM) [%] | % signal compared to DMSO (biotinylated GST; assay conc. 0.37037037 μM) [%] | % signal compared to DMSO (biotinylated GST; assay conc. 1.111111111 μM) [%] | % signal compared to DMSO (biotinylated GST; assay conc. 3.333333333 μM) [%] | % signal compared to DMSO (biotinylated GST; assay conc. 10 μM) | HillSlope (cRaf/K-Ras (G12V) PPI) | blank corrected HTRF (cRaf/K-Ras (G12V) PPI; conc. 1.00E−05) | blank corrected HTRF (cRaf/K-Ras (G12V) PPI; conc. 1.11E−06) | blank corrected HTRF (cRaf/K-Ras (G12V) PPI; conc. 3.33E−06) | blank corrected HTRF (cRaf/K-Ras (G12V) PPI; conc. 3.70E−07) | blank corrected HTRF (cRaf/K-Ras (G12V) PPI; conc. 4.12E−08) | further results |
| --- | --- | --- | --- | --- | --- | --- | --- | --- | --- | --- | --- | --- | --- | --- | --- | --- | --- | --- | --- | --- | --- |
| CC(C)C[C@@H](NC(=O)c1ccc2c(c1)C(=O)OC21c2ccc(O)cc2Oc2cc(O)ccc21)C(=O)N1CCC[C@@H]1C(=O)N[C@H](CCC(=O)O)C(=O)N[C@H](CO)C(=O)N[C@@H](Cc1ccccc1)C(=O)NCc1ccc(CC(=O)NCC(=O)N[C@@H](C(=O)N2CCC[C@@H]2C(=O)N[C@H](CCCNC(=N)N)C(=O)N[C@@H](C)C(=O)NCc2ccc(CC(=O)N3CCC[C@@H]3C(=O)N[C@H](CO)C(=O)N[C@H](CCC(=O)O)C(=O)N[C@H](CCCNC(=N)N)C(=O)NCC(=O)NCc3ccc(CC(=O)N4CCC[C@@H]4C(=O)N[C@H](CCCCN)C(=O)N[C@H](Cc4ccc(O)cc4)C(=O)N[C@H](CCCNC(=N)N)C(=O)N[C@@H](Cc4ccccc4)C(=O)NCc4ccc(CC(=O)N[C@H](CCCNC(=N)N)C(=O)N[C@H](Cc5ccc(O)cc5)C(=O)N[C@@H](C(=O)N[C@H](CCC(=O)O)C(=O)N[C@@H](C)C(=O)NCc5ccc(CC(=O)N[C@H](Cc6ccc(O)cc6)C(=O)N6CCC[C@@H]6C(=O)N[C@H](CCCNC(=N)N)C(=O)N[C@H](CCC(=O)O)C(=O)NCC(=O)NCc6ccc(CC(N)=O)cc6)cc5)[C@H](C)O)cc4)cc3)cc2)C(C)C)cc1 [KRAS-1-4] (5FAM-[dL][dP][dE][dS]F[X1]G[dV][dP][dR]A[X1][dP][dS][dE][dR]G[X1][dP][dK][dY][dR]F[X1][dR][dY][dT][dE]A[X1][dY][dP][dR][dE]G-{NHCH2C6H4(4-CH2CONH2)}) | 36 | no inhibition |  |  |  |  |  |  |  |  |  |  |  |  |  |  |  |  |  |  | MFI ratio of the target (K-Ras-CF555) to the counter target (Raf-AF647) for the hit beads [1]: 1.89 |
| CC(C)C[C@@H](NC(=O)[C@@H](Cc1ccc(O)cc1)NC(=O)[C@H]1CCCN1C(=O)[C@@H](CO)NC(=O)Cc1ccc(CNC(=O)CNC(=O)[C@@H](Cc2c[nH]c3ccccc23)NC(=O)[C@@H](CCCNC(=N)N)NC(=O)CNC(=O)[C@H]2CCCN2C(=O)Cc2ccc(CNC(=O)[C@H](C)NC(=O)[C@@H](CCCNC(=N)N)NC(=O)[C@H]3CCCN3C(=O)[C@H](NC(=O)[C@@H](Cc3ccc(O)cc3)NC(=O)Cc3ccc(CNC(=O)[C@H](Cc4ccccc4)NC(=O)[C@@H](CO)NC(=O)[C@@H](CCCNC(=N)N)NC(=O)[C@H]4CCCN4C(=O)CNC(=O)Cc4ccc(CNC(=O)[C@H](C)NC(=O)[C@@H](CCCNC(=N)N)NC(=O)[C@H]5CCCN5C(=O)[C@H](NC(=O)CNC(=O)Cc5ccc(CNC(=O)[C@@H](NC(=O)[C@@H](Cc6ccc(O)cc6)NC(=O)[C@@H](Cc6c[nH]cn6)NC(=O)[C@H]6CCCN6C(=O)[C@@H](Cc6c[nH]c7ccccc67)NC(=O)c6ccc7c(c6)C(=O)OC76c7ccc(O)cc7Oc7cc(O)ccc76)C(C)C)cc5)C(C)C)cc4)cc3)[C@H](C)O)cc2)cc1)C(=O)N[C@@H](C)C(=O)NCc1ccc(CC(N)=O)cc1 [KRAS-1-8] (5FAM-[dW][dP][dH][dY]V[X1]G[dV][dP][dR]A[X1]G[dP][dR][dS]F[X1][dY][dT][dP][dR]A[X1][dP]G[dR][dW]G[X1][dS][dP][dY][dL]A-{NHCH2C6H4(4-CH2CONH2)}) | 44 | complete inhibition | 44 | 44 | 99.94 | 102.4 | 103 | 98.33 | 87.69 | 97.53 | 93.95 | 81.88 | 68.53 | 56.45* % | −0.6222 | 7296 | 10835 | 9028 | 12171 | 15230 | blank corrected HTRF (cRaf/K-Ras (G12V) PPI; conc. 1.37E−08): 15117; blank corrected HTRF (cRaf/K-Ras (G12V) PPI; conc. 4.57E−09): 14396; blank corrected HTRF (cRaf/K-Ras (G12V) PPI; conc. 5.08E−10): 13397 |
| CC(C)C[C@H](NC(=O)[C@@H](C)NC(=O)[C@@H](CCC(=O)O)NC(=O)[C@H](NC(=O)[C@@H](CCCCN)NC(=O)Cc1ccc(CNC(=O)[C@H](C)NC(=O)[C@@H](CCCNC(=N)N)NC(=O)[C@H]2CCCN2C(=O)[C@H](NC(=O)CNC(=O)Cc2ccc(CNC(=O)[C@H](Cc3ccccc3)NC(=O)[C@@H](CO)NC(=O)[C@@H](CCC(=O)O)NC(=O)[C@H]3CCCN3C(=O)[C@@H](CC(C)C)NC(=O)c3ccc4c(c3)C(=O)OC43c4ccc(O)cc4Oc4cc(O)ccc43)cc2)C(C)C)cc1)[C@H](C)O)C(=O)NCc1ccc(CC(=O)N[C@H](Cc2ccc(O)cc2)C(=O)N[C@@H](C(=O)N2CCC[C@@H]2C(=O)N[C@H](CCCNC(=N)N)C(=O)N[C@@H](C)C(=O)NCc2ccc(CC(=O)N3CCC[C@@H]3C(=O)NCC(=O)N[C@H](CCCNC(=N)N)C(=O)N[C@H](Cc3c[nH]c4ccccc34)C(=O)NCC(=O)NCc3ccc(CC(=O)NCC(=O)N[C@H](Cc4c[nH]c5ccccc45)C(=O)N[C@H](Cc4c[nH]cn4)C(=O)N[C@H](CCCNC(=N)N)C(=O)N[C@@H](C)C(=O)NCc4ccc(CC(N)=O)cc4)cc3)cc2)[C@H](C)O)cc1 [KRAS-1-13] (5FAM-[dL][dP][dE][dS]F[X1]G[dV][dP][dR]A[X1][dK][dT][dE][dA]L[X1][dY][dT][dP][dR]A[X1][dP]G[dR][dW]G[X1]G[dW][dH][dR]A-{NHCH2C6H4(4-CH2CONH2)}) | 30 | partial inhibition | 30 | 30 | 101.8 | 103.1 | 102.8 | 101.9 | 102.1 | 100.3 | 100.4 | 94.53 | 80.42 | 62.38* % | −0.821 | 3798 | 8379 | 3957 | 9542 | 14025 | blank corrected HTRF (cRaf/K-Ras (G12V) PPI; conc. 1.52E−09): 13665; blank corrected HTRF (cRaf/K-Ras (G12V) PPI; conc. 4.57E−09): 13413; blank corrected HTRF (cRaf/K-Ras (G12V) PPI; conc. 5.08E−10): 5044 |
| DRVYIHPFHL [Angiotensin I, reference compound] |  |  |  |  |  |  |  |  |  |  |  |  |  |  |  |  |  |  |  |  | Stability in human plasma [2]: completely degraded within four hours |
